# Source: ChEMBL document CHEMBL1135954, “Opioid activity of 4-imidazolidinone positional analogues of Leu-Enkephalin” (Bioorg Med Chem Lett, 2002)
# Peptide text beside a SMILES is read from it. * marks the point of attachment. X1 = CC(C)C[C@H]1C(=O)NCN1*
# What was measured:
# Mu-type opioid receptor = Mu-type opioid receptor (Rattus norvegicus, UniProt P33535)
# [1] = target: Kappa-type opioid receptor (Rattus norvegicus, UniProt P34975); assay: Binding affinity towards Opioid receptor kappa 1 was determined using U69,593 as the radioligand.
# Kappa-type opioid receptor, sequence (P34975 whole entry): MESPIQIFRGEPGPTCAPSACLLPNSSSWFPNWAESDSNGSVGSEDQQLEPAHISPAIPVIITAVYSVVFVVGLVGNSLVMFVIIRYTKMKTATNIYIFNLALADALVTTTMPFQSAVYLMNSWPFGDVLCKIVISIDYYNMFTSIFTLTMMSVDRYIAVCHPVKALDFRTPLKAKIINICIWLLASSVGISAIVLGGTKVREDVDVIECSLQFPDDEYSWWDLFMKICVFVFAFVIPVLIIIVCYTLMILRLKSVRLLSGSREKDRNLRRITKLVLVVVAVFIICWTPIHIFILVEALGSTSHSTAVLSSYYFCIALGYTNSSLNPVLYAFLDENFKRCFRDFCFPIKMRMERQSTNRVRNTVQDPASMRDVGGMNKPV
# Mu-type opioid receptor, sequence (P33535 whole entry): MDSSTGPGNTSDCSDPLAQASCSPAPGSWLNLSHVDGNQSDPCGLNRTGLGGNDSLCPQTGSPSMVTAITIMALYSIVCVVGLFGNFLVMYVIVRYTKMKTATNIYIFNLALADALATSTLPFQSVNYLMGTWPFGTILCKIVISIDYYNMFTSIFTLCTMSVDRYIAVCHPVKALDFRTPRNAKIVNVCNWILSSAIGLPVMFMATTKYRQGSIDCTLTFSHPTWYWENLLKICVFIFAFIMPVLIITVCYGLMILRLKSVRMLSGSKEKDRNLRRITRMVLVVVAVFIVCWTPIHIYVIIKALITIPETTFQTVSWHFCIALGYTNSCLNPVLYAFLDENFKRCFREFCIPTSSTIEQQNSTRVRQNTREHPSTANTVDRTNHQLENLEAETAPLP
Compound,Ki (Mu-type opioid receptor),Ki [1]
CC(C)C[C@@H](C(N)=O)N1CN(C(=O)CNC(=O)CNC(=O)[C@@H](N)Cc2ccc(O)cc2)[C@@H](Cc2ccccc2)C1=O,2560 nM,> 10000 nM
CNC(=O)[C@H](CC(C)C)N(C)C(=O)[C@H](Cc1ccccc1)NC(=O)CNC(=O)CNC(=O)[C@@H](N)Cc1ccc(O)cc1,28 nM,1690 nM
CC(C)C[C@H](NC(=O)[C@H](Cc1ccccc1)N1CN(C(=O)CNC(=O)[C@@H](N)Cc2ccc(O)cc2)CC1=O)C(N)=O,236 nM,> 10000 nM
CC(C)C[C@H](NC(=O)[C@H](Cc1ccccc1)NC(=O)CN1CN(C(=O)[C@@H](N)Cc2ccc(O)cc2)CC1=O)C(N)=O,92 nM,> 10000 nM
CC(C)C[C@@H](C(N)=O)N(C)C(=O)[C@H](Cc1ccccc1)NC(=O)CNC(=O)CNC(=O)[C@@H](N)Cc1ccc(O)cc1,46 nM,2230 nM
CNC(=O)[C@H](CC(C)C)NC(=O)[C@H](Cc1ccccc1)NC(=O)CNC(=O)CNC(=O)[C@@H](N)Cc1ccc(O)cc1,145 nM,1370 nM
CC(C)C[C@H](NC(=O)[C@H](Cc1ccccc1)NC(=O)CNC(=O)CN1CN[C@@H](Cc2ccc(O)cc2)C1=O)C(N)=O,547 nM,> 10000 nM
CC(C)C[C@H]1C(=O)NCN1C(=O)[C@H](Cc1ccccc1)NC(=O)CNC(=O)CNC(=O)[C@@H](N)Cc1ccc(O)cc1 (H-YGGF-X1),4 nM,2890 nM
